The subject of data set [1] is 3T3.
Method: (§1) Photo-bleaches were tested for photo-toxicity using the Photo-toxicity-In Vitro 3T3 NRU Photo-toxicity Test” of the Commission Directive 2000/33/EC of 25 Apr.
Data set [2] in a line: Photo-bleaching of palm oil stained cotton cloths in wash followed by weatherometer irradiation. Particulars: staining relative to clean white cloth. How it is done:
Palm oil stained cloths (Brazilian) were prepared as follows. Palm oil 0.06 g was added deposited onto individual woven white cotton cloth samples weighing 1.2 g each. The cloth samples were allowed to age for 1 hour before being washed. Each wash consisted of four stained cloths, 200 ml of 40° C. water and 1 g of Persil Colour-washing powder (purchased in UK, zeolite based). The wash liquor was agitated for 20 minutes then the clothes rinsed in cold water, wrung and irradiated in a weatherometer for 18 minutes. The weatherometer is designed to simulate outside line drying and was set to give 42 W/m2 in the UVA&B.
The washes were duplicated but with the addition of 9 ppm of the photo-bleach to the wash solution, corresponding to 0.18% by weight on the powder formulation.
After the wash/irradiation procedure the staining of the clothes relative to clean white cloth was measured on a reflectometer and expressed as the deltaE value.

The subject of data set [3] is 3T3. As to the kind of experiment: In Vitro 3T3 NRU Photo-toxicity Test. The following applies: for Result: photo-toxicity classification.
Method: as §1
Where [4] appears, read: Example 1, 9 ppm photo-bleach in wash solution, 40° C. wash, irradiated 18 minutes in weatherometer.
[5] abbreviates: Table 3, PIF quoted to 2 significant figures.
[6] abbreviates: Example 2, same procedure as Example 1, 9 ppm photo-bleach.

Data on nine molecules can be found in patent publication US20060229224A1, “Bleaching composition” (priority 2003, published 2006).

Where “and” joins values, the source holds several entries; their conditions need not be identical. Equal entries are not always repeated. Entries after “also recorded” stand apart in the source; their conditions may differ. Where two headings read alike, the source gives them in different places.

With 2-sulphate anthraquinone, the PIF in the data set on 3T3 [1] is more than 170.
For `O=C(c1ccccc1)C1(O)CCCCC1` [1-hydroxycyclohexylphenyl ketone], in the data set on 3T3 [1], the PIF is recorded as more than 7.5.
On to `Cc1cc(C)c(C(=O)c2ccccc2)c(C)c1` [2,4,6-trimethylbenzophenone], for which the “Average deltaE” value in data set [2] (setting [4]) is 16.2. In the data set on 3T3 [3] (setting [5]), this molecule registered a PIF of 28. Also, in the data set on 3T3 [3] (Table 3), the Result result is listed as “Photo-toxic (PIF≧5 or MPE≧0.1)”.
The matching figures for `CCc1ccc2c(c1)C(=O)c1ccccc1C2=O` [2-ethylanthraquinone]: 2.5, more than 1000 and “Photo-toxic (PIF≧5 or MPE≧0.1)”.
In the data set with 3T3 [3] (setting [5]), `CC(C)(O)C(=O)c1ccc(OCCO)cc1` [2-hydroxy-4′-hydroxyethoxy-2-methylpropiophenone] showed a PIF of more than 120. Also, in the data set with 3T3 [3] (Table 3), the Result result is “Photo-toxic (PIF≧5 or MPE≧0.1)”.
Consider `CC1(C)[C@@H]2CC[C@@]1(C)C(=O)C2=O` [Camphoroquinone], for which the “Average deltaE” value in data set [2] (setting [6]) stood at 23.5.
`CN(C)CCCN1c2ccccc2Sc2ccc(Cl)cc21` [Chlorpromazine]: the PIF in the data set with 3T3 [3] (setting [5]) amounted to 43. For the same molecule, the Result entry in the data set with 3T3 [3] (Table 3) is “Photo-toxic (PIF≧5 or MPE≧0.1)”.
On the same counts, the results for `Cc1cc(C)c(C(=O)P(=O)(C(=O)c2c(C)cc(C)cc2C)c2ccccc2)c(C)c1` [Phenylbis(2,4,6-trimethylbenzoyl)-phosphine oxide] are more than 12 and “Photo-toxic (PIF≧5 or MPE≧0.1)”.
For `CC1=CC(=O)c2ccccc2C1=O` [Vitamin K3, 2-methyl-1,4-napthoquinone], in data set [2] (setting [6]), the “Average deltaE” value stood at 2.9. In addition, the photo-toxicity classification entry with 3T3 [3] was “not photo-toxic; also recorded: non-photo-toxic”. In addition, the PIF is 2.3 with 3T3 [3] (setting [5]); 1.9 and 1.6 in the data set with 3T3 [3] (experiments repeated twice more). The Result result with 3T3 [3] (Table 3) is “Non-photo-toxic (PIF<5 or MPE<0.1)”.
